Measurements as given in patent publication US12350259B2, “Methods of treating migraine” (Allergan Pharmaceuticals International Limited, priority 2021, dated 2025).
Marks after values point to notes of the source that are not given here.

How the values were obtained:
[1] = Atogepant-topiramate interaction study: safety and tolerability; assay type: in vivo, human
[2] = Atogepant-quinidine gluconate (P-gp inhibition) drug interaction study: atogepant PK; assay type: in vivo, human
Description: A phase 1, single-center, single-sequence, open-label, 2-intervention, drug-drug interaction study was conducted to evaluate the effects of P-glycoprotein (P-gp) inhibition by quinidine gluconate on pharmacokinetics (PK) and safety of atogepant. In this study, healthy adults received atogepant 60 mg on day 1, quinidine gluconate 324 mg twice daily on Day 8, quinidine gluconate 648 mg twice-daily on days 9-12, and atogepant 60 mg co-administered on day 11. Plasma samples were collected on days 1 and 11.
Atogepant PK parameters calculated were peak plasma concentration (Cmax); time to Cmax (tmax); and area under plasma concentration—time curve from time 0 to time t (AUC0-t) and infinity (AUC0-∞). PK parameters of atogepant co-administered with quinidine gluconate vs. atogepant administered alone were compared using a mixed-effects model. Statistical significance was achieved if 90% confidence intervals (Cis) for least squares geometric mean ratios (GMRs) of PK parameter values for atogepant co-administered with quinidine gluconate to atogepant administered alone were within 80%-125%. Safety assessments included clinical laboratory values, vital signs, electrocardiograms, and […] adverse events (TEAEs).

BCRP = BCRP (Homo sapiens, UniProt Q9UNQ0); assay: Transporter substrate; assay type: in vitro ADME
Sequence of BCRP (Q9UNQ0 whole entry): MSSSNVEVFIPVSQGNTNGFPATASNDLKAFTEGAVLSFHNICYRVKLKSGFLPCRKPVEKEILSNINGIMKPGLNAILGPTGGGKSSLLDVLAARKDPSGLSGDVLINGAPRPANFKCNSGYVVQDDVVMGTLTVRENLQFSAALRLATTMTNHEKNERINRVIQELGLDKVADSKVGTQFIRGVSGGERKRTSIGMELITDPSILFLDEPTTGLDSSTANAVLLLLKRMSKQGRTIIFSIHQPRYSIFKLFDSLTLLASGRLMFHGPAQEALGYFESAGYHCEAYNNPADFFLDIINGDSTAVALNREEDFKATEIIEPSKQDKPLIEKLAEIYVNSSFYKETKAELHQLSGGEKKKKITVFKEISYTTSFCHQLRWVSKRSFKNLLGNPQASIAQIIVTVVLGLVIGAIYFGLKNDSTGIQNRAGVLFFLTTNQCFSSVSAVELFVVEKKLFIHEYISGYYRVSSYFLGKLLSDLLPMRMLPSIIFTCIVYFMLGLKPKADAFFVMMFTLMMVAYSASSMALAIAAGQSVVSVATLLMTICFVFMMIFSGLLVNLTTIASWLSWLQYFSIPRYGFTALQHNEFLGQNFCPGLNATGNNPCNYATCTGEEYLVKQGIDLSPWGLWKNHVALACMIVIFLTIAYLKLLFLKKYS

P-gp = P-gp (Homo sapiens, UniProt P08183); assay: Transporter inhibition; assay type: in vitro ADME; details: clinically relevant concentrations
Sequence of P-gp (P08183 whole entry): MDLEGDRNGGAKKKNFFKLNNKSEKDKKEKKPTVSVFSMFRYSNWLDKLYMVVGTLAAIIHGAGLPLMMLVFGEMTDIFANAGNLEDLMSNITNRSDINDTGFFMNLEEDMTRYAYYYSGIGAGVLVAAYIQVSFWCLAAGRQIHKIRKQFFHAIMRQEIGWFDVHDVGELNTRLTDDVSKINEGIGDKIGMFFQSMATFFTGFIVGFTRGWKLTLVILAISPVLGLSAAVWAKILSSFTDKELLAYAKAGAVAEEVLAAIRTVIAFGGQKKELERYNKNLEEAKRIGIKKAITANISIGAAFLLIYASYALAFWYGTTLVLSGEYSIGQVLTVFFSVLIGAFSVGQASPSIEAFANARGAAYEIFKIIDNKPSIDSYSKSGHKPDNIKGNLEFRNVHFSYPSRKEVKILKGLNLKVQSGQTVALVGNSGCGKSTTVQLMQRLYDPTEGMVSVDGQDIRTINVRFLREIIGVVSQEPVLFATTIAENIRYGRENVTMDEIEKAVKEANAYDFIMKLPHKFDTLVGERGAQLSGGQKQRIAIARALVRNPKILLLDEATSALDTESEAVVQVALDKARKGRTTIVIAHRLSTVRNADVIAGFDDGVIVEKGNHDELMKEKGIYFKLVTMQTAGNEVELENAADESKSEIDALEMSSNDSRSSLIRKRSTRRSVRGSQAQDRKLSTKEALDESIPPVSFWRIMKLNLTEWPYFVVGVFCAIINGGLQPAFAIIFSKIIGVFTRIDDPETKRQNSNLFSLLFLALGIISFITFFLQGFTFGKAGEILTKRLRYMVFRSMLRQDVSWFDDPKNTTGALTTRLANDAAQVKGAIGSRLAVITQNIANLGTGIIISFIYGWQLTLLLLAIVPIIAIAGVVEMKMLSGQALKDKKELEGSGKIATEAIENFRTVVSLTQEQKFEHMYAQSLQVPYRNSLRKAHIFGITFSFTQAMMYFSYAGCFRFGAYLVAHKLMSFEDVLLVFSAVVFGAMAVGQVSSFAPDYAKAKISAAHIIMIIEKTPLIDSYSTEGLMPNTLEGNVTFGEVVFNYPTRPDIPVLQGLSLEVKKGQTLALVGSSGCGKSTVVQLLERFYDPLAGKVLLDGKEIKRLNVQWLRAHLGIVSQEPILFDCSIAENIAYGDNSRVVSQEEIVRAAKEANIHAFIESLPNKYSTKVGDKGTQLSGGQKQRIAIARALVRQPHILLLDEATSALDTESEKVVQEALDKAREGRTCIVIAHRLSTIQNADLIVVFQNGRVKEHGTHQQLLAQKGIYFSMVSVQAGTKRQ

OCT1 = OCT1 (Homo sapiens, UniProt O15245); assay: Transporter inhibition; assay type: in vitro ADME
Sequence of OCT1 (O15245 whole entry): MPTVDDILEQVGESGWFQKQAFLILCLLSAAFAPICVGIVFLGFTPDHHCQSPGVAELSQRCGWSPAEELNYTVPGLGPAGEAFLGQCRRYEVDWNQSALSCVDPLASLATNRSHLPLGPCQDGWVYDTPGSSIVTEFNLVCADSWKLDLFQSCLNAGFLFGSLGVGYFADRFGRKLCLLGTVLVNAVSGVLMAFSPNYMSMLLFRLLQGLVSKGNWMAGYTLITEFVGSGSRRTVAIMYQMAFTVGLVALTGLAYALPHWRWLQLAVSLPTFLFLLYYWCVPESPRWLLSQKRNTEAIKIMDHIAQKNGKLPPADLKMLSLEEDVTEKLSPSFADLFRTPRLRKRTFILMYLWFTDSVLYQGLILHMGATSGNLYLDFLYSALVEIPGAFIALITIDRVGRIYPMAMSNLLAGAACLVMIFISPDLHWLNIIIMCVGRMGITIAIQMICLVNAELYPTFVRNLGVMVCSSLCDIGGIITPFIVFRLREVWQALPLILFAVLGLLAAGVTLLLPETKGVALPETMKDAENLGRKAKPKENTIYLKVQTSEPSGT

CYP2B6 = CYP2B6 (Homo sapiens, UniProt P20813); assay: In vitro CYP inhibition; assay type: in vitro ADME; details: clinically relevant concentrations
Sequence of CYP2B6 (P20813 whole entry): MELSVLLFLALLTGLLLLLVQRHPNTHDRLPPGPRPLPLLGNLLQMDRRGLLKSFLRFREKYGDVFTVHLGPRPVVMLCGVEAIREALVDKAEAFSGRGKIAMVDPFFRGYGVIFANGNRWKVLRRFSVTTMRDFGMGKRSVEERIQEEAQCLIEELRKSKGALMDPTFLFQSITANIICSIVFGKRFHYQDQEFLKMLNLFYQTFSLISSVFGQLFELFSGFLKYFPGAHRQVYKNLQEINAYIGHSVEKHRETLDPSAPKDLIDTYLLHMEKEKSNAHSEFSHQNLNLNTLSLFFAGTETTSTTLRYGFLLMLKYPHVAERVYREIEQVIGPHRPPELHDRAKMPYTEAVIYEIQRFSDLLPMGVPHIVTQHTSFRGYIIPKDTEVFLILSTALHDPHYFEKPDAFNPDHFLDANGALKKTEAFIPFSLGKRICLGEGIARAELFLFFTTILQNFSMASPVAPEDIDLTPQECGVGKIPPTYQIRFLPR

[3] = Hepatic impairment study: safety and tolerability; assay type: in vivo, human; details: single 60 mg dose, all hepatic function groups
Description: A multicenter, non-randomized, open-label, parallel-group, single-dose study was carried out to evaluate the PK, safety, and tolerability profiles of atogepant in participants with impaired hepatic function and matched healthy participants with normal hepatic function after a single 60-mg oral dose of atogepant. The primary outcome measures were PK parameters of atogepant derived from plasma concentrations. Safety measures were AEs, clinical laboratory determinations, vital sign parameters, electrocardiographic results, and physical examination findings.

[4] = Atogepant-esomeprazole interaction study: safety; assay type: in vivo, human; details: atogepant 60 mg alone or with esomeprazole magnesium 40 mg
Description: A phase 1, open-label, 2-intervention, single-sequence, nonrandomized, crossover, drug-drug interaction study was conducted to evaluate the effects of multiple-dose esomeprazole magnesium 40 mg on pharmacokinetics (PK) and safety of co-administered single-dose atogepant 60 mg in healthy adults.

OAT1 = OAT1 (Homo sapiens, UniProt Q4U2R8); assay: Transporter substrate; assay type: in vitro ADME
Sequence of OAT1 (Q4U2R8 whole entry): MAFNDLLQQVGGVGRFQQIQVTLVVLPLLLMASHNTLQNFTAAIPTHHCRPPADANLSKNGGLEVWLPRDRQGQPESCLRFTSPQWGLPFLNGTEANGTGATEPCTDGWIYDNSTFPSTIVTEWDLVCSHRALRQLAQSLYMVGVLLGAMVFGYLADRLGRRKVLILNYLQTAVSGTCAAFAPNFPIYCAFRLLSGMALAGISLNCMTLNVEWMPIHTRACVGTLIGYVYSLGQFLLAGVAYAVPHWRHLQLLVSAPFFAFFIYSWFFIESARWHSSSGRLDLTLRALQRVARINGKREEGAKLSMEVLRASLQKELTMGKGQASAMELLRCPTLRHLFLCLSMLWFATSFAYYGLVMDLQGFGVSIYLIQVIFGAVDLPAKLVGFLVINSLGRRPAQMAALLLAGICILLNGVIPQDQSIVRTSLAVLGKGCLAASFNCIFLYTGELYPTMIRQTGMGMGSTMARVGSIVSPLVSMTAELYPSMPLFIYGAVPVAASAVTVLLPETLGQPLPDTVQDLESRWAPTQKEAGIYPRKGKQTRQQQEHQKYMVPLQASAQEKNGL

NTCP = NTCP (Homo sapiens, UniProt Q14973); assay: Transporter inhibition; assay type: in vitro ADME; details: clinically relevant concentrations
Sequence of NTCP (Q14973 whole entry): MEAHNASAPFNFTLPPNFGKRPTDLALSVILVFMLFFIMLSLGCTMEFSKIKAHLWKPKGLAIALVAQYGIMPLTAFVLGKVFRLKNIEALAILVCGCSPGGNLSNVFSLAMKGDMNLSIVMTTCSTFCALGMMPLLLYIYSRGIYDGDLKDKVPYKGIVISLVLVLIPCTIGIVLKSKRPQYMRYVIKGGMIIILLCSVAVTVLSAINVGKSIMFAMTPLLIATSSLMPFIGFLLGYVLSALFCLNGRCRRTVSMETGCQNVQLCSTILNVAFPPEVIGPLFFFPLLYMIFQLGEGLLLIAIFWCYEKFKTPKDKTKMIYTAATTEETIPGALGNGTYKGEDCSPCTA

[5] = Safety in 12-week placebo-controlled Studies 1 and 2; assay type: in vivo, human
Description: The safety of atogepant was evaluated in 1958 patients with migraine who received at least one dose of atogepant. Of these, 839 patients were exposed to atogepant once daily for at least 6 months, and 487 patients were exposed for 12 months. In the 12-week, placebo-controlled clinical studies (Study 1 and Study 2, discussed above in Example 7), 314 patients received at least one dose of atogepant 10 mg once daily, 411 patients received at least one dose of atogepant 30 mg once daily, 417 patients received at least one dose of atogepant 60 mg once daily, and 408 patients received placebo. Approximately 88% were female, 80% were White, 17% were Black, and 12% were of Hispanic or Latino ethnicity. The mean age at study entry was 41 years (range 18 to 74 years).

CYP2C19 = CYP2C19 (Homo sapiens, UniProt P33261); assay: In vitro CYP inhibition; assay type: in vitro ADME; details: clinically relevant concentrations
CYP3A4 = CYP3A4 (Homo sapiens, UniProt P08684); assay: Elimination by metabolism; assay type: in vitro ADME
Sequence of CYP3A4 (P08684 whole entry): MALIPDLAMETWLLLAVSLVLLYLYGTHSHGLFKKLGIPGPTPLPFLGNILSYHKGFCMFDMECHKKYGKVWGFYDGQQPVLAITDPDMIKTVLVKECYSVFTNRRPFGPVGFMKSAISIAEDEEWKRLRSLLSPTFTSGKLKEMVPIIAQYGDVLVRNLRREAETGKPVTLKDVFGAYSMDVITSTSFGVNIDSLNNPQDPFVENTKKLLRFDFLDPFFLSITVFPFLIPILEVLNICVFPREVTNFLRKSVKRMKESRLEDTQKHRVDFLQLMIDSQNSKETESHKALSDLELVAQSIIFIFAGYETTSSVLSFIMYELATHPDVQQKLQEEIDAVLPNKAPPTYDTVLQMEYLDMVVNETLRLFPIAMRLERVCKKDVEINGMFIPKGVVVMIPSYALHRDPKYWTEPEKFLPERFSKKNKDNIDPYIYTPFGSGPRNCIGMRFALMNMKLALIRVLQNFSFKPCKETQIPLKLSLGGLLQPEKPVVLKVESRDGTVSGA

CYP2C9 = CYP2C9 (Homo sapiens, UniProt P11712); assay: In vitro CYP inhibition; assay type: in vitro ADME; details: clinically relevant concentrations
UGT1A1 = UGT1A1 (Homo sapiens, UniProt P22309); assay: Enzyme inhibition; assay type: in vitro ADME; details: clinically relevant concentrations
Sequence of UGT1A1 (P22309 26-533): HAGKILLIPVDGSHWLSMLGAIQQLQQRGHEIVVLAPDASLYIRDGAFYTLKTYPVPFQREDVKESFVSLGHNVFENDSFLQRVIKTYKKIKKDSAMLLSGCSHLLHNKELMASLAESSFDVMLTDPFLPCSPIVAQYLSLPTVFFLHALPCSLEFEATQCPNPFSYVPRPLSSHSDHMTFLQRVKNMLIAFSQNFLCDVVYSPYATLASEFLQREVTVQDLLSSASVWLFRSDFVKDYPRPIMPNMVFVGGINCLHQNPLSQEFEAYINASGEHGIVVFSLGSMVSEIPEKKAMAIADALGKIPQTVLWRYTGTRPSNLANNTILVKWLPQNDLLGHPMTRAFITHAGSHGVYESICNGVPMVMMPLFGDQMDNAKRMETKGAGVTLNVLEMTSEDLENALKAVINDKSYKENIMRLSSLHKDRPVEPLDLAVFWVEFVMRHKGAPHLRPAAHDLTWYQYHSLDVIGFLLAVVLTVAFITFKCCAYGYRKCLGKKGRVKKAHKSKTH

[6] = Excretion after single oral dose of 14C-atogepant; assay type: in vivo, human; details: single oral dose of 50 mg 14C-atogepant, healthy male subjects
Description: The parent compound (atogepant) and a glucuronide conjugate metabolite (M23) were the most prevalent circulating components in human plasma. […] Following a single oral dose of 50 mg ^14C-atogepant to healthy male subjects, 42% and 5% of the dose was recovered as unchanged atogepant in feces and urine, respectively.

[7] = co-administered with quinidine gluconate
[8] = Studies 1 and 2, atogepant 10 mg (N = 314)
[9] = Studies 1 and 2, atogepant 30 mg (N = 411)
[10] = Studies 1 and 2, atogepant 60 mg (N = 417)

For C[C@@H]1[C@H](c2c(F)ccc(F)c2F)C[C@H](NC(=O)c2cnc3c(c2)C[C@@]2(C3)C(=O)Nc3ncccc32)C(=O)N1CC(F)(F)F [atogepant, (3′S)-N-[(3S,5S,6R)-6-methyl-2-oxo-1-(2,2,2-trifluoroethyl)-5-(2,3,6-trifluorophenyl)piperidin-3-yl]-2′-oxo-1′,2′,5,7-tetrahydrospiro[cyclopenta[b]pyridine-6,3′-pyrrolo[2,3-b]pyridine]-3-carboxamide], the “Deaths, %” value ([1]; cohort 1, atogepant + topiramate (n = 26)) was “(0) %”, the “Deaths, %” value ([1]; cohort 1, atogepant alone (n = 28)) was “(0) %” and the “TEAEs leading to discontinuation, %” value ([1]; human, in vivo) was “(17.9)^a %”. The “TESAEs, %” value ([1]; human, in vivo) was “(0) %”, the “Treatment-related TEAEs, %” value ([1]; human, in vivo) was “(39.3) %” and the “Treatment-related TESAEs, %” value ([1]; human, in vivo) was “(0) %”. For the same compound, the constipation reported ([1]; human, in vivo) was 3 participants, the nausea reported ([1]; human, in vivo) was 6 participants and the “TEAEs, %” value ([1]; human, in vivo, 7 days) was “(71.4) %”. The AUC increase [2, 7] was “approximately 25%”, the Cmax increase [2, 7] was 4.4% and the Tmax ([2]; human, plasma, with or without quinidine gluconate, read-out: atogepant median tmax) was 1.5 h. The “substrate of BCRP” value (BCRP) was “substrate”, the “inhibition of P-gp” value (P-gp) was “not an inhibitor” and the “inhibition of OCT1” value (OCT1) was “weak inhibitor”. The “inhibition of CYP2B6” value (CYP2B6) was “not an inhibitor”, the tolerability [3] was “well tolerated” and the safety and tolerability [4] was “safe and tolerated”. For the same compound, the “substrate of OAT1” value (OAT1) was “substrate”, the “inhibition of NTCP” value (NTCP) was “not an inhibitor” and the “discontinuation due to constipation” value ([5]; Studies 1 and 2) was 0.5%. For the same compound, the “discontinuation due to fatigue/somnolence” value ([5]; Studies 1 and 2) was 0.5%, the “discontinuation due to nausea” value ([5]; Studies 1 and 2) was 0.5% and the “proportion of patients with a weight decrease of at least 7% at any point” value ([5]; Studies 1 and 2, atogepant 10 mg) was 3.8%. The “Constipation, incidence” value [5, 8] was 6%, the “Decreased Appetite, incidence” value [5, 8] was 2% and the “Fatigue/Somnolence, incidence” value [5, 8] was 4%. The “Nausea, incidence” value [5, 8] was 5%, the “proportion of patients with a weight decrease of at least 7% at any point” value ([5]; Studies 1 and 2, atogepant 30 mg) was 3.2% and the “Constipation, incidence” value [5, 9] was 6%. For the same compound, the “Decreased Appetite, incidence” value [5, 9] was 1%, the “Fatigue/Somnolence, incidence” value [5, 9] was 4% and the “Nausea, incidence” value [5, 9] was 6%. The “proportion of patients with a weight decrease of at least 7% at any point” value ([5]; Studies 1 and 2, atogepant 60 mg) was 4.9%, the “Constipation, incidence” value [5, 10] was 6% and the “Decreased Appetite, incidence” value [5, 10] was 2%. The “Fatigue/Somnolence, incidence” value [5, 10] was 6%, the “Nausea, incidence” value [5, 10] was 9% and the “severe liver injury or jaundice” value ([5]; Study 1 and Study 2) was “no cases”. The “rate of transaminase elevations over 3 times the upper limit of normal” value ([5]; Study 1 and Study 2, patients treated with atogepant) was 1.0%, the “time to resolution of transaminase elevations after discontinuation” value ([5]; cases temporally associated with atogepant treatment, asymptomatic) was no more than 8 weeks and the “inhibition of CYP2C19” value (CYP2C19) was “not an inhibitor”. The “route of elimination (metabolism)” value (CYP3A4) was “primarily by CYP3A4”, the “inhibition of CYP2C9” value (CYP2C9) was “not an inhibitor” and the “inhibition of UGT1A1” value (UGT1A1) was “does not inhibit”. The “dose recovered as unchanged atogepant in feces” value [6] was 42% and the “dose recovered as unchanged atogepant in urine” value [6] was 5%.
